Measurements taken from patent US12653815B2, “Luminally-acting N-(piperidin-4-yl)benzamide derivatives” (Takeda Pharmaceutical Company Limited, priority 2020, dated 2026).

Target: T1, human 5-HT4(b) receptor (Homo sapiens, UniProt Q13639)
T1 construct: overexpressing the full-length human 5-HT4(b) receptor with an N-terminal FLAG tag; FLAG (N); host or cells: CHO-K1
Assay: 5-HT4(b) agonist assay (cAMP accumulation)
Format: cell-based
Details: CHO-K1 cells overexpressing full-length human 5-HT4(b) receptor; cAMP accumulation after 30 minutes at room temperature; 1 μM 5-HT as 100% activity
Experimental: One may determine the activity of the compounds of Formula 1 using a variety of methods, including in vitro and in vivo methods. The ability of the example compounds to activate the 5-HT4(b) receptor may be determined using the following assay.
Chinese hamster ovary (CHO-K1) cells overexpressing the full-length human 5-HT4(b) receptor with an N-terminal FLAG tag (Multispan Inc, Hayward, CA) are cultured per the manufacturer's protocol in 1:1 DMEM/F12 (Thermo Fisher, Waltham, MA) with 10% fetal bovine serum (GE Healthcare, Pittsburgh, PA) and 10 μg/mL puromycin (Thermo Fisher, Waltham, MA), and stored in frozen aliquots to be used as assay ready cells. On the day of the assay, cells are removed from frozen storage, washed two times in 1× Kreb's Ringer Buffer (Zenbio, Research Triangle Park, NC), and re-suspended to a concentration of 4×10^6 cells/mL in 1× Kreb's Ringer Buffer. Test compound (50 nL) in 100% DMSO is acoustically dispensed in low volume, white, 384-well polypropylene plates (Corning, Tewksbury, MA), followed by the addition of 4×10^4 cells per well in a total volume of 10 μL. Cells are incubated with test compound for 30 minutes at room temperature in the dark, and cAMP accumulation is measured using the Cisbio HiRange cAMP assay kit (Bedford, MA) per the manufacturer's protocol. Anti-cAMP antibody and d2-cAMP tracer reagents diluted in lysis/detection buffer are incubated in the dark for 1 hour, and results are measured on a Pherastar plate reader (BMG Labtech, Ortenberg, Germany). Data are normalized using 1 μM 5-HT (Sigma Aldrich, St. Louis, MO) as 100% activity, and DMSO alone as 0% activity.
The ability of the example compounds to activate the 5-HT4(b) receptor was evaluated using the assay described in the Biological Activity section. Table 1, below, lists EC50 from the 5-HT4(b) agonist assay for each of the example compounds, where smaller EC50 values represent higher potency.

T1 sequence (Q13639 whole entry): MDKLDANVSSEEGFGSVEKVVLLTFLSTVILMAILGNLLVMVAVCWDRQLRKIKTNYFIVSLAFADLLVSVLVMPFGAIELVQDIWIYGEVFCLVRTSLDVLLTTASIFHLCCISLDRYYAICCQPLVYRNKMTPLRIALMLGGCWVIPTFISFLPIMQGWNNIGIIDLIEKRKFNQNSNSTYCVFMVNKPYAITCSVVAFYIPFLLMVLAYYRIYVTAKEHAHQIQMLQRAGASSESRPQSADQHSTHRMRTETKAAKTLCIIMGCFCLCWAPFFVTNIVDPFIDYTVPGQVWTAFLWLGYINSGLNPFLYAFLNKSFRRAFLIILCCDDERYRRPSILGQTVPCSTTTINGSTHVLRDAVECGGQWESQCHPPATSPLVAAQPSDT

SMILES	EC50 [nM]
Nc1c(Cl)cc(C(=O)NCC2CCN(CC3CCN(C(=O)CCCCCCCCCCC(=O)NC[C@H](O)[C@@H](O)[C@H](O)[C@H](O)CO)CC3)CC2)c2c1CCO2 [Example 38, 4-amino-5-chloro-N-((1-((1-(12-oxo-12-(((2S,3R,4R,5R)-2,3,4,5,6-pentahydroxyhexyl)amino)dodecanoyl)piperidin-4-yl)methyl)piperidin-4-yl)methyl)-2,3-dihydrobenzofuran-7-carboxamide]	1.2
CO[C@H]1CN(CC2CCN(C(=O)CCCCCCCC(=O)NC[C@H](O)[C@@H](O)[C@H](O)[C@H](O)CO)CC2)CC[C@H]1NC(=O)c1cc(Cl)c(N)c2c1OCC2 [Example 41, 4-amino-5-chloro-N-((3S,4R)-3-methoxy-1-((1-(9-oxo-9-(((2S,3R,4R,5R)-2,3,4,5,6-pentahydroxyhexyl)amino)nonanoyl)piperidin-4-yl)methyl)piperidin-4-yl)-2,3-dihydrobenzofuran-7-carboxamide]	1.2
CO[C@H]1CN(CC2CCN(C(=O)CCCCCC(=O)NC[C@H](O)[C@@H](O)[C@H](O)[C@H](O)CO)CC2)CC[C@H]1NC(=O)c1cc(Cl)c(N)c2c1OCC2 [Example 42, 4-amino-5-chloro-N-((3S,4R)-3-methoxy-1-((1-(7-oxo-7-(((2S,3R,4R,5R)-2,3,4,5,6-pentahydroxyhexyl)amino)heptanoyl)piperidin-4-yl)methyl)piperidin-4-yl)-2,3-dihydrobenzofuran-7-carboxamide]	1.4
CO[C@H]1CN(CCCCCC(=O)NCCCCCCCC(=O)NC[C@H](O)[C@@H](O)[C@H](O)[C@H](O)CO)CC[C@H]1NC(=O)c1cc(Cl)c(N)c2c1OCC2 [Example 44, 4-amino-5-chloro-N-((3S,4R)-3-methoxy-1-(6-oxo-6-((8-oxo-8-(((2S,3R,4R,5R)-2,3,4,5,6-pentahydroxyhexyl)amino)octyl)amino)hexyl)piperidin-4-yl)-2,3-dihydrobenzofuran-7-carboxamide]	3.1
CO[C@H]1CN(CCCCCC(=O)NCCCCCC(=O)NC[C@H](O)[C@@H](O)[C@H](O)[C@H](O)CO)CC[C@H]1NC(=O)c1cc(Cl)c(N)c2c1OCC2 [Example 45, 4-amino-5-chloro-N-((3S,4R)-3-methoxy-1-(6-oxo-6-((6-oxo-6-(((2S,3R,4R,5R)-2,3,4,5,6-pentahydroxyhexyl)amino)hexyl)amino)hexyl)piperidin-4-yl)-2,3-dihydrobenzofuran-7-carboxamide]	12.1

More lines, in order of falling EC50, values ahead:

EC50 [nM]	SMILES
5.9	CO[C@H]1CN(CCCCCC(=O)NCCCC(=O)NC[C@H](O)[C@@H](O)[C@H](O)[C@H](O)CO)CC[C@H]1NC(=O)c1cc(Cl)c(N)c2c1OCC2 [Example 46]
2	Nc1c(Cl)cc(C(=O)NCC2CCN(CC3CCN(C(=O)CCCCCCC(=O)NC[C@H](O)[C@@H](O)[C@H](O)[C@H](O)CO)CC3)CC2)c2c1CCO2 [Example 40, 4-amino-5-chloro-N-((1-((1-(8-oxo-8-(((2S,3R,4R,5R)-2,3,4,5,6-pentahydroxyhexyl)amino)octanoyl)piperidin-4-yl)methyl)piperidin-4-yl)methyl)-2,3-dihydrobenzofuran-7-carboxamide]
1.7	CO[C@H]1CN(CC2CCN(C(=O)CCCC(=O)NC[C@H](O)[C@@H](O)[C@H](O)[C@H](O)CO)CC2)CC[C@H]1NC(=O)c1cc(Cl)c(N)c2c1OCC2 [Example 43, 4-amino-5-chloro-N-((3S,4R)-3-methoxy-1-((1-(5-oxo-5-(((2S,3R,4R,5R)-2,3,4,5,6-pentahydroxyhexyl)amino)pentanoyl)piperidin-4-yl)methyl)piperidin-4-yl)-2,3-dihydrobenzofuran-7-carboxamide]
1.2	Nc1c(Cl)cc(C(=O)NCC2CCN(CC3CCN(C(=O)CCCCCCCCC(=O)NC[C@H](O)[C@@H](O)[C@H](O)[C@H](O)CO)CC3)CC2)c2c1CCO2 [Example 39, 4-amino-5-chloro-N-((1-((1-(10-oxo-10-(((2S,3R,4R,5R)-2,3,4,5,6-pentahydroxyhexyl)amino)decanoyl)piperidin-4-yl)methyl)piperidin-4-yl)methyl)-2,3-dihydrobenzofuran-7-carboxamide]
